# From patent US8735321B2, “Process for the production of particles comprising active agrochemical ingredients in amorphous form” (priority 2008, dated 2014)
# Assay: crystal formation of active ingredient mixtures from acetone after one week storage at 20° C.
# Type: physicochemical
# Conditions: stored one week at 20° C.
# Description: The active ingredients were dissolved in acetone (see Table 1) and combined to give the mixing ratios (Table 2). The acetone was evaporated for two days at room temperature and then stripped off in vacuum for 5 h at 80° C. (method A). Temperature-insensitive active ingredients Were subsequently melted for an additional 15 h at 140° C. (method B). The samples were cooled to 20° C. in each case and stored for one week at 20° C.
# [1] = method B (as A, then melted 15 h at 140° C.)
Structure (SMILES),Crystal formation [1],"Crystal formation (method A (acetone evaporated, vacuum 5 h at 80° C.))"
O=C(Nc1ccccc1-c1ccc(Cl)cc1)c1cccnc1Cl [Boscalid],Yes,
Fc1ccc([C@]2(Cn3cncn3)O[C@H]2c2ccccc2Cl)cc1 (racemic) [Epoxiconazole],Yes,
COCC(=O)N(c1c(C)cccc1C)C(C)C(=O)OC (centres unmarked) [Metalaxyl],,Yes
CC1(C)CCC(=Cc2ccc(Cl)cc2)C1(O)Cn1cncn1 (centres unmarked) [Triticonazole],Yes,
"Cn1cc(C(=O)Nc2ccccc2-c2cc(F)c(F)c(F)c2)c(C(F)F)n1 [Fungicide A, N-(3′,4′,5′-trifluorobiphenyl-2-yl)-3-difluoromethyl-1-methyl-1H-pyrazole-4-carboxamide]",Yes,
